Test: recombinant UMI read abundance after kanamycin selection (control-corrected) (log10(CPM+1)); higher = more efficient recombination; extreme values may be limits of the assay; sequences stand for … in AGTGCAGAGAAAATCGGCCAGTTTTCTCTGCCTGCAGTCCGCATGCCGTGGGACCCCTTGGGTTCTAACCTGTTGCCTAGATTTATGCAGCGGACTGCCTTTCTCCCAAAGTGATAAACCGG…AGGTTGGTTTCACT; site = the 11-nt donor
Method in brief: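 In a pooled Escherichia coli screen for the IS621 bridge recombinase, donor and donor-binding-loop pairs were each placed with a 12-nt UMI on a plasmid bearing a promoterless kanamycin gene. This library was co-electroporated with a target plasmid encoding a fixed target and T7-inducible recombinase, and cells were plated either on IPTG (0.07 mM) plus kanamycin or without selection, in two replicates each. Recombinant UMIs were PCR-amplified across the donor–target junction and sequenced, and counts were converted to CPM, averaged over replicates, scaled by control-derived factors and reported as log10(CPM+1).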

Row | Sequence | recombinant UMI read abundance (log10)
1 | TCAGAGACATGGACCGGTTTTCCCGGTAATCCGTATTTGAA (site TCAGAGACTTT) | 1.74
2 | TCACACCCATGGACCGGTTTTCCCGGTAATCCGTATTTGCC (site TCACACCCTGG) | 0.92
3 | CGATAGTCATGGACCGGTTTTCCCGGTAATCCGTATTTGCC (site CGATAGTCTGG) | 2.66
4 | AGTGTTACATGGACCGGTTTTCCCGGTAATCCGTATTTGCT (site AGTGTTACTAG) | 2.01
5 | ATTCGAGCATGGACCGGTTTTCCCGGTAATCCGTATTTGCA (site GTTCGAGCTTG) | 0.663
6 | GTGCATGCATGGACCGGTTTTCCCGGTAATCCGTATTTGGA (site GTGCATGCTTC) | 1.28
7 | GCTACGGCATGGACCGGTTTTCCCGGTAATCCGTATTTGCC (site GCTACAGCTGG) | 0
8 | CGGGGACCATGGACCGGTTTTCCCGGTAATCCGTATTTGAT (site CGGGCACCTAT) | 0.00825
9 | TGAAGTCCATGGACCGGTTTTCCCGGTAATCCGTATTTGTA (site TAAAGTCCTTA) | 0.00928
10 | CAATGCCCATGGACCGGTTTTCCCGGTAATCCGTATTTGAA (site CAATGCTCTTT) | 1.62
11 | ATAAGGCCATGGACCGGTTTTCCCGGTAATCCGTATTTGAT (site ATAAGGCCTGT) | 0
12 | CGGAGAGCATGGACCGGTTTTCCCGGTAATCCGTATTTGAA (site CGGAGAGCTTT) | 2.27
13 | ATGTAGGCATGGACCGGTTTTCCCGGTAATCCGTATTTGGC (site ATGTAGACTGC) | 2.34
14 | AATTATGCATGGACCGGTTTTCCCGGTAATCCGTATTTGTA (site AATTATGCTTC) | 0.0111
15 | CCATCCCCATGGACCGGTTTTCCCGGTAATCCGTATTTGAT (site CCATCCCCTAT) | 0.0114
16 | AATGTCACATGGACCGGTTTTCCCGGTAATCCGTATTTGCT (site AATGTGACTAG) | 0.0645
17 | TAGCCAGCATGGACCGGTTTTCCCGGTAATCCGTATTTGAA (site TAGCCAGCTTT) | 0.924
18 | ACGTCCTCATGGACCGGTTTTCCCGGTAATCCGTATTTGGT (site ACGTCCTCTAC) | 1.51
19 | AATAGTACATGGACCGGTTTTCCCGGTAATCCGTATTTGTC (site AATAGTACTGA) | 1.89

Row | Sequence | recombinant UMI read abundance (log10)
20 | TCGTTAACATGGACCGGTTTTCCCGGTAATCCGTATTTGTT (site TCGTTAACTAA) | 0.00894
21 | TAGCCTTCATGGACCGGTTTTCCCGGTAATCCGTATTTGGT (site TAGCCCTCTAC) | 0.00791
22 | ACTCATCCATGGACCGGTTTTCCCGGTAATCCGTATTTGAC (site ACTCATCCTGT) | 0.798
23 | TAGCCTTCATGGACCGGTTTTCCCGGTAATCCGTATTTGCT (site TAGCCTTCTAC) | 0.00853
24 | TCCAATTCATGGACCGGTTTTCCCGGTAATCCGTATTTGCC (site TCCAACTCTGG) | 0
25 | TTGTGTACATGGACCGGTTTTCCCGGTAATCCGTATTTGCA (site TTGTGTACTTG) | 0.756
26 | GATTAGCCATGGACCGGTTTTCCCGGTAATCCGTATTTGCT (site GATTAGCCTAG) | 0
27 | CGTGGAACATGGACCGGTTTTCCCGGTAATCCGTATTTGCT (site CGTGGAACTAA) | 0.202
28 | CAAGTCTCATGGACCGGTTTTCCCGGTAATCCGTATTTGGG (site CAAGTCTCTCC) | 0.916
29 | TAATGCGCATGGACCGGTTTTCCCGGTAATCCGTATTTGGG (site TAATGTGCTCC) | 0.00404
30 | TACCTCCCATGGACCGGTTTTCCCGGTAATCCGTATTTGGC (site TACCTCCCTGC) | 0
31 | AAACAGTCATGGACCGGTTTTCCCGGTAATCCGTATTTGCT (site AAACAGTCTAG) | 2.98
32 | TGTCCGGCATGGACCGGTTTTCCCGGTAATCCGTATTTGGC (site TGTCCGGCTGC) | 0.541
33 | TTCTACGCATGGACCGGTTTTCCCGGTAATCCGTATTTGTT (site TTCTACGCTAA) | 0.603
34 | GAACCGACATGGACCGGTTTTCCCGGTAATCCGTATTTGGT (site GAACCGACTAC) | 0.724
35 | TGCGGTCCATGGACCGGTTTTCCCGGTAATCCGTATTTGAG (site TGCGGTCCTCT) | 0.0157
36 | CCCTCAACATGGACCGGTTTTCCCGGTAATCCGTATTTGAT (site CCCTCAACTAT) | 0.00694
37 | ACAGTATCATGGACCGGTTTTCCCGGTAATCCGTATTTGTA (site ACAGTATCTTA) | 3.08
38 | CTAGTTTCATGGACCGGTTTTCCCGGTAATCCGTATTTGAC (site CTAGTCTCTGT) | 1.74

Row | Sequence | recombinant UMI read abundance (log10)
39 | CCCAAATCATGGACCGGTTTTCCCGGTAATCCGTATTTGTC (site CCCACATCTGA) | 0
40 | GGCAAACCATGGACCGGTTTTCCCGGTAATCCGTATTTGGT (site GTCAAACCTAC) | 0
41 | GGTATTTCATGGACCGGTTTTCCCGGTAATCCGTATTTGCC (site GGTATTTCTGG) | 0
42 | GATTGGCCATGGACCGGTTTTCCCGGTAATCCGTATTTGCA (site GACTGGCCTTG) | 0
43 | TTAGTATCATGGACCGGTTTTCCCGGTAATCCGTATTTGAG (site TTAGTATCTCT) | 1.66
44 | TCCAATTCATGGACCGGTTTTCCCGGTAATCCGTATTTGCC (site CCCAATTCTGG) | 0
45 | ACCAGTGCATGGACCGGTTTTCCCGGTAATCCGTATTTGGT (site ACGAGTGCTAC) | 0.0125
46 | CTGCCACCATGGACCGGTTTTCCCGGTAATCCGTATTTGCT (site CTGCGACCTAG) | 0
47 | GCGTTGACATGGACCGGTTTTCCCGGTAATCCGTATTTGCA (site GCGTTGACTTG) | 2.59
48 | TAGTTTGCATGGACCGGTTTTCCCGGTAATCCGTATTTGCC (site TAGTTTGCTGG) | 0
49 | AGCTTAGCATGGACCGGTTTTCCCGGTAATCCGTATTTGTT (site AGCGTAGCTAA) | 0.0147
50 | TGAAGTCCATGGACCGGTTTTCCCGGTAATCCGTATTTGTA (site TGAAGTCCTTA) | 0.591
51 | ACCTTGACATGGACCGGTTTTCCCGGTAATCCGTATTTGGG (site ACCTCGACTCC) | 0.0142
52 | CGGAACGCATGGACCGGTTTTCCCGGTAATCCGTATTTGTT (site CGGAATCCTAA) | 0.0213
53 | CCCGAGCCATGGACCGGTTTTCCCGGTAATCCGTATTTGCC (site CCCAAGCCTGG) | 0
54 | ACAGTATCATGGACCGGTTTTCCCGGTAATCCGTATTTGTA (site ACAGTATCTTC) | 2.02
55 | GTAAGTACATGGACCGGTTTTCCCGGTAATCCGTATTTGAC (site GTATGTACTGT) | 0.67
56 | CTTGTATCATGGACCGGTTTTCCCGGTAATCCGTATTTGGC (site CTTGTATCTGC) | 0.486
57 | CGACCAACATGGACCGGTTTTCCCGGTAATCCGTATTTGCT (site CGATCATCTAG) | 0

Reference: the supplement of paper PMC11208160
